Results taken from patent publication US12390447B2, “Sirtuin 6 protein deacylase (SIRT6) activators” (Wisconsin Alumni Research Foundation, priority 2019, dated 2025).

Assays:
SIRT6 = SIRT6 (Homo sapiens, UniProt Q8N6T7); assay: Small molecule SIRT6 activator screen (H3K9ac peptide deacetylation, HPLC); assay type: biochemical; details: compound 100 μM; SIRT6 1 μM; H3K9ac peptide 20 μM; 0.5 mM NAD+
Method: Mastermix containing SIRT6, buffer, and H3K9ac peptide were distributed to wells using Microflex peristaltic dispenser (Beckman). Plates were spun and preheated to 37° C. before addition of NAD^+ using peristaltic dispenser. After 60 minutes reactions were quenched with 2% TFA final using peristaltic dispenser then sealed and spun again before in-house HPLC separation and quantification of substrate and product peptides. Reaction conditions were 1 μM SIRT6, 0.5 mM NAD^+, […] (4-16), 20 mM potassium phosphate pH 7.5, 10% DMSO, and either 10 or 100 μM compound determined by 10-fold dilution of stock library concentration.
All sirtuin deacylation assays were carried out at 37° C. in 20 mM potassium phosphate pH 7.5 with 0.5 mM NAD^+, 10% DMSO, and 20 μM H3K9ac or H3K9myr peptides, unless otherwise noted in legend, and quenched by the addition of 2% TFA final. Steady-state reactions were constrained to less than 20% substrate turnover to prevent product inhibition. A variety of times were required to monitor SIRT6 deacetylation (2-60 minutes) under this restraint given the ability to strongly activate catalysis. In these cases, specific activities were determined and either reported as is or as fold-activation of specific activity. […] Deacetylation reactions were analyzed using a gradient of 33-100% B (30% acetonitrile with 0.05% TFA) in 8 min at 1.6 mL min^−1. Demyristoylation reactions were analyzed using a gradient of 3 to 100% B (acetonitrile with 0.05% TFA) in 10 min at 1.6 mL min^−1. The product and substrate peaks were quantified and ratio of these allowed for quantification of product formation.

SIRT1 = target: T1, SIRT1 (Homo sapiens, UniProt Q96EB6); assay: SIRT1 deacetylase activity against H3K9ac peptide; assay type: biochemical; details: 400 μM compound
T1 sequence (Q96EB6 1-747): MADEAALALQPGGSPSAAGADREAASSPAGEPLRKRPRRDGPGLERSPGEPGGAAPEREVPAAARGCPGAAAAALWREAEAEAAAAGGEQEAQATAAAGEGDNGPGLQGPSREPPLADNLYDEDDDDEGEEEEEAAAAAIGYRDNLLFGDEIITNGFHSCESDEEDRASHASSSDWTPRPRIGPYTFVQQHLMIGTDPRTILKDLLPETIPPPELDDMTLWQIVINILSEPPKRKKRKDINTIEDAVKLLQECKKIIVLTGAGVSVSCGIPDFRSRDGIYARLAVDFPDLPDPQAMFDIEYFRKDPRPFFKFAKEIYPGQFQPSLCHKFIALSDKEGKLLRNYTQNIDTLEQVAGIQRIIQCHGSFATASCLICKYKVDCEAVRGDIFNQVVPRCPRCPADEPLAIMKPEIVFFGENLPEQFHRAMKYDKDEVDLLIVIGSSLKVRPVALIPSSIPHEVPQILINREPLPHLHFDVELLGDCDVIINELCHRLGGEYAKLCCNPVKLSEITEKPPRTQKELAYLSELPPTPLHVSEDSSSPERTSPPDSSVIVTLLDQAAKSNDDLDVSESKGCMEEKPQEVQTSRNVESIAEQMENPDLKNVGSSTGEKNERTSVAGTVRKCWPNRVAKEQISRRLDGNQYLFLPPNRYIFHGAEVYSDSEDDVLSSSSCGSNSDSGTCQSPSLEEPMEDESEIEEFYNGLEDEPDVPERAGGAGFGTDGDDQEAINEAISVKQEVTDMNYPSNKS
Method: FIGS. 1A-F illustrate the identification of novel SIRT6 activators. (1A) Compound libraries BML-2803, BML-2800, and an additional set of 178 molecules were screened at 100 μM for their ability to stimulate SIRT6 (1 μM) deacetylation of H3K9ac peptide (20 μM) in the presence of 0.5 mM NAD^+. SIRT6 activity was measured by HPLC quantification of H3K9ac and deacetylated product (inset) and fold activations relative to DMSO control were determined and compiled. (1B) Fold-activation of SIRT6 (1 μM) determined in the presence of either 0-400 μM CL4, 0-150 μM TTNPB, 0-100 μM Lysophosphatidic acid (LPA), or 0-200 μM linoleoylglycine (LGly). Maximum fold-activation and EC50 determined by sigmoidal curve fit. […] Constants Km, H3K9ac and kcat were determined by fitting data to Michaelis-Menten equation. (1D) Fold-activations of SIRT1 (0.1 μM), SIRT2 (0.2 μM), SIRT3 (1 μM), SIRT5 (2 μM), and SIRT6 (1 μM) determined in the presence of CL4 (100 μM), TTNPB (50 μM), and LPA (50 μM) relative to DMSO control against 20 μM H3K9ac peptide and 0.5 mM NAD^+. […]
All sirtuin deacylation assays were carried out at 37° C. in 20 mM potassium phosphate pH 7.5 with 0.5 mM NAD^+, 10% DMSO, and 20 μM H3K9ac or H3K9myr peptides, unless otherwise noted in legend, and quenched by the addition of 2% TFA final. […] The product and substrate peaks were quantified and ratio of these allowed for quantification of product formation. […]

Chain of SIRT6 (Q8N6T7 whole entry): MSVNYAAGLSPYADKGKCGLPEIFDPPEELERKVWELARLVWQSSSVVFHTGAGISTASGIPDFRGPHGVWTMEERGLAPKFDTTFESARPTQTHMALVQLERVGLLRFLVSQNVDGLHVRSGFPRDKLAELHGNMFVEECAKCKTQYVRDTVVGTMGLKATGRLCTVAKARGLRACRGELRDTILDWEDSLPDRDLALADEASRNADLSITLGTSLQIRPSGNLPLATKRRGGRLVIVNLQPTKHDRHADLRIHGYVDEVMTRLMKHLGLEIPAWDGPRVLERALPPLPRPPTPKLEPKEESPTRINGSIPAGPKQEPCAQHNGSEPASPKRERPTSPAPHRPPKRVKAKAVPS

F.A. (fold-activation of SIRT6 relative to DMSO control) (SIRT6) [fold]	SIRT1 deacetylase activity at high activator concentration (SIRT1)	Structure (SMILES)
18	–	O=C(O)c1ccc2c(c1)C(=O)N(c1ccc(NC(=O)c3ccc(Cl)cc3Cl)c(Cl)c1)C2=O [CL-4, 2-(3-chloro-4-(2,4-dichlorobenzamido)phenyl)-1,3-dioxoisoindoline-5-carboxylic acid]
–	inhibited	O=C(O)c1ccc2c(c1)C(=O)N(c1ccc(N(C(=O)c3c(Cl)cc(Cl)cc3Cl)C(=O)c3c(Cl)cc(Cl)cc3Cl)c(Cl)c1)C2=O [CL-5D, 2-(3-chloro-4-(2,4,6-trichloro-N-(2,4,6-trichlorobenzoyl)benzamido)phenyl)-1,3-dioxoisoindoline-5-carboxylic acid]
29	–	CCCCC/C=C\C/C=C\CCCCCCCC(=O)NCC(=O)O [N-Linoleoylglycine, linoleoyl-glycine, reference compound]
